From patent publication US20260374754A1, “N-((ISOQUINOLIN-6-YL)METHYL)-1H-PYRAZOLE-4-CARBOXAMIDE DERIVATIVES AS PLASMA KALLIKREIN INHIBITORS FOR THE TREATMENT OF HEREDITARY ANGIODEMA” (Takeda Pharmaceutical Company Limited, priority 2022, published 2026)
Counter-ions that a name gives are not always drawn.

Biological target: human activated kallikrein enzyme (Homo sapiens, UniProt P03952)
Test: Inhibition of human activated plasma kallikrein, fluorogenic PFR-AMC substrate, 500 pM enzyme format
Format: biochemical
Conditions: 500 pM activated kallikrein; 300 μM PFR-AMC; 30 min preincubation; 10 min room temperature; pH 7.5; read-out: Primary Dose Response Assay: Average EC50
Summary of the method: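 Using fluorogenic PFR-AMC at 300 μM, cleavage by 500 pM human activated kallikrein ran 10 min at room temperature, read at 460 nm emission (380 nm excitation). Enzyme and compounds were first preincubated 30 min in 20 mM Tris pH 7.5, 150 mM NaCl, 1 mM EDTA, 0.1% PEG-400, 0.1% Triton X-100.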

Sequence of human activated kallikrein enzyme (P03952 391-638 limits assumed): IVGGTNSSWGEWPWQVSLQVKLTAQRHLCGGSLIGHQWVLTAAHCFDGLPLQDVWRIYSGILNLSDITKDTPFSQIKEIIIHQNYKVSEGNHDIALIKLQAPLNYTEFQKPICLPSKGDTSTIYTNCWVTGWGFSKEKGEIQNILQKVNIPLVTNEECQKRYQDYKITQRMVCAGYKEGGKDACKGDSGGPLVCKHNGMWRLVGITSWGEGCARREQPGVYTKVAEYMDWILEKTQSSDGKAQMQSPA
Sequence of human activated kallikrein enzyme (P03952 20-390 partner limits assumed): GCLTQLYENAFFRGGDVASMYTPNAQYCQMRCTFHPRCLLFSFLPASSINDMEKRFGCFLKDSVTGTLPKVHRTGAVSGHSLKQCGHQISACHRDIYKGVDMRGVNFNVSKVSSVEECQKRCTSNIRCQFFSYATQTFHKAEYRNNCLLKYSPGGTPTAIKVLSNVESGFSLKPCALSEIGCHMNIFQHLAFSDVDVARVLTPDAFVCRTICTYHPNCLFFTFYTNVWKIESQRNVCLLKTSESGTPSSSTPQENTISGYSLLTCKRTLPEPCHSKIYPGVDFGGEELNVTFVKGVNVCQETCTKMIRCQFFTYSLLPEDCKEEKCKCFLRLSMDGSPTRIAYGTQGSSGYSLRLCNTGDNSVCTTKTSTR

| Structure (SMILES) | EC50 [nM] |
| --- | --- |
| Cc1cc2c(N)nccc2c(C)c1CNC(=O)c1cnn(Cc2cc3ccccc3o2)c1 [Example 82, N-((1-amino-5,7-dimethylisoquinolin-6-yl)methyl)-1-(benzofuran-2-ylmethyl)-1H-pyrazole-4-carboxamide] | 10 to 100 |
| Cc1ccc2ccc(Cn3cc(C(=O)NCc4c(C)cc5c(N)nccc5c4C)cn3)cc2c1 [Example 153, N-((1-amino-5,7-dimethylisoquinolin-6-yl)methyl)-1-((7-methylnaphthalen-2-yl)methyl)-1H-pyrazole-4-carboxamide] | 1 to 10 |
| Cc1cnc2ccc(CNc3cc(NCc4c(C)cc5c(N)nccc5c4C)ncn3)cc2c1 [Example 336, N^4-((1-amino-5,7-dimethylisoquinolin-6-yl)methyl)-N^6-((3-methylquinolin-6-yl)methyl)pyrimidine-4,6-diamine] | < 1 |
| Cc1cc2c(N)nccc2c(C)c1CNc1cc(NCc2ccc3c(-n4ccccc4=O)cccc3c2)ncn1 [Example 245, 1-(6-(((6-(((1-amino-5,7-dimethylisoquinolin-6-yl)methyl)amino)pyrimidin-4-yl)amino)methyl)naphthalen-1-yl)pyridin-2(1H)-one] | < 1 |
| Cc1cc2c(N)nccc2c(C)c1CNc1cc(NCc2ccc(OCc3ncco3)cc2)ncn1 [Example 351, N^4-((1-amino-5,7-dimethylisoquinolin-6-yl)methyl)-N^6-(4-(oxazol-2-ylmethoxy)benzyl)pyrimidine-4,6-diamine, formic acid salt] | 1 to 10 |
| Cc1cc2nc(Cn3cc(C(=O)NCc4c(C)cc5c(N)nccc5c4C)cn3)cn2cc1C [Example 102, N-((1-amino-5,7-dimethylisoquinolin-6-yl)methyl)-1-((6,7-dimethylimidazo[1,2-a]pyridin-2-yl)methyl)-1H-pyrazole-4-carboxamide] | < 1 |
| Cc1cc2c(N)nccc2c(C)c1CNC(=O)c1cnn(Cc2ccc(CC(=O)N3CCC3)cc2)c1 [Example 219, N-((1-amino-5,7-dimethylisoquinolin-6-yl)methyl)-1-(4-(2-(azetidin-1-yl)-2-oxoethyl)benzyl)-1H-pyrazole-4-carboxamide] | < 1 |
| Cc1cc2c(N)nccc2c(C)c1CNC(=O)c1cnc(Cc2cn3cc(C4CC4)ccc3n2)s1 [Example 198, N-((1-amino-5,7-dimethylisoquinolin-6-y1)methyl)-2-((6-cyclopropylimidazo[1,2-a]pyridin-2-yl)methyl)thiazole-5-carboxamide] | 1 to 10 |
| CCc1cnc2ccc(Cn3cc(C(=O)NCc4c(C)cc5c(N)nccc5c4C)cn3)cc2c1 [Example 124, N-((1-amino-5,7-dimethylisoquinolin-6-yl)methyl)-1-((3-ethylquinolin-6-yl)methyl)-1H-pyrazole-4-carboxamide] | < 1 |
| Cc1cc2c(N)nccc2c(C)c1CNc1cc2c(Cc3ccc4ccccc4c3)cn(C)c2cn1 [Example 524, 5,7-dimethyl-6-(((1-methyl-3-(naphthalen-2-ylmethyl)-1H-pyrrolo[2,3-c]pyridin-5-yl)amino)methyl)isoquinolin-1-amine] | > 1000 |
| Cc1cc2c(N)nccc2c(C)c1CNC(=O)c1cnn(Cc2cn3cc(Br)c(Cl)cc3n2)c1 [Example 149, N-((1-amino-5,7-dimethylisoquinolin-6-yl)methyl)-1-((6-bromo-7-chloroimidazo[1,2-a]pyridin-2-yl)methyl)-1H-pyrazole-4-carboxamide] | < 1 |
| Cc1cc2c(N)nccc2c(C)c1CNc1nccnc1OCc1cn2cc(C3CC3)ccc2n1 [Example 287, 6-(((3-((6-cyclopropylimidazo[1,2-a]pyridin-2-yl)methoxy)pyrazin-2-yl)amino)methyl)-5,7-dimethylisoquinolin-1-amine] | 10 to 100 |
| Cc1cc2c(N)nccc2c(C)c1CNC(=O)c1cnn(Cc2cn3c(C)c(Br)ccc3n2)c1 [Example 145, N-((1-amino-5,7-dimethylisoquinolin-6-yl)methyl)-1-((6-bromo-5-methylimidazo[1,2-a]pyridin-2-yl)methyl)-1H-pyrazole-4-carboxamide] | < 1 |
| Cc1cc2c(N)nccc2c(C)c1CNc1cc(OCc2ccc(Cn3cccn3)cc2)c2c(c1)C(=O)N(C)C2 [Example I-468, 4-((4-((1H-pyrazol-1-yl)methyl)benzyl)oxy)-6-(((1-amino-5,7-dimethylisoquinolin-6-yl)methyl)amino)-2-methylisoindolin-1-one] | 1 to 10 |
| Cc1cc2c(N)nccc2c(C)c1CNC(=O)c1cnn(Cc2oc3ccccc3c2C)c1 [Example 47, N-((1-amino-5,7-dimethylisoquinolin-6-yl)methyl)-1-((3-methylbenzofuran-2-yl)methyl)-1H-pyrazole-4-carboxamide] | 10 to 100 |
| Cc1cc(Cn2cc(C(=O)NCc3c(C)cc4c(N)nccc4c3C)cn2)cc(C)c1CC(=O)N(C)C [Example 20, N-((1-amino-5,7-dimethylisoquinolin-6-yl)methyl)-1-(4-(2-(dimethylamino)-2-oxoethyl)-3,5-dimethylbenzyl)-1H-pyrazole-4-carboxamide] | < 1 |
| COC(=O)C(c1cn2cc(C)ccc2n1)n1cc(C(=O)NCc2c(C)cc3c(N)nccc3c2C)cn1 (centres unmarked) [Example 14, methyl 2-(4-(((1-amino-5,7-dimethylisoquinolin-6-yl)methyl)carbamoyl)-1H-pyrazol-1-yl)-2-(6-methylimidazo[1,2-a]pyridin-2-yl)acetate] | 100 to 1000 |
| Cc1cc2c(N)nccc2c(C)c1CNc1cc(NC(C)c2ccc(Cc3ccccn3)cc2)ncn1 (centres unmarked) [Example 366, N^4-((1-amino-5,7-dimethylisoquinolin-6-yl)methyl)-N^6-(1-(4-(pyridin-2-ylmethyl)phenyl)ethyl)pyrimidine-4,6-diamine] | < 1 |
| Cc1cc2c(N)nccc2c(C)c1CNc1cc(NCc2cn3cc(C(F)(F)F)ccc3n2)ncn1 [Example 329, N^4-((1-amino-5,7-dimethylisoquinolin-6-yl)methyl)-N^6-((6-(trifluoromethyl)imidazo[1,2-a]pyridin-2-yl)methyl)pyrimidine-4,6-diamine] | < 1 |
| Cc1cc2c(N)nccc2c(C)c1CNc1cc(NCc2ccc(Cc3cnccn3)cc2)ncn1 [Example 338, N^4-((1-amino-5,7-dimethylisoquinolin-6-yl)methyl)-N^6-(4-(pyrazin-2-ylmethyl)benzyl)pyrimidine-4,6-diamine] | 1 to 10 |
| Cc1cc2c(N)nccc2c(C)c1CNc1cc(OC(C)c2ccc(Cn3cccn3)cc2)cnn1 (single isomer, unassigned) [Example 277, (S*)-6-(((5-(1-(4-((1H-pyrazol-1-yl)methyl)phenyl)ethoxy)pyridazin-3-yl)amino)methyl)-5,7-dimethylisoquinolin-1-amine] | 10 to 100 |
| COc1ccnc2ccc(CNc3cc(NCc4c(C)cc5c(N)nccc5c4C)ncn3)cc12 [Example 323, N^4-((1-amino-5,7-dimethylisoquinolin-6-yl)methyl)-N^6-((4-methoxyquinolin-6-yl)methyl)pyrimidine-4,6-diamine] | 1 to 10 |
| Cc1cc(Cn2cc(C(=O)NCc3c(C)cc4c(N)nccc4c3C)cn2)ccc1CC(=O)N(C)C [Example 26, N-((1-amino-5,7-dimethylisoquinolin-6-yl)methyl)-1-(4-(2-(dimethylamino)-2-oxoethyl)-3-methylbenzyl)-1H-pyrazole-4-carboxamide] | < 1 |
